These results are taken from PubChem BioAssay (NCI).

Some test systems named below: SN12C renal; HCT-116 colon; HCT-15 colon; 786-0 renal; HCC-2998 colon; SK-MEL-28 melanoma; U251 CNS; NCI-H460 lung; SF-268 CNS; COLO 205 colon.
What all share (assay): inhibition of tumour cell growth, NCI panel, 48 h

Molecules are shown by their SMILES. “And” between values parts separate entries of the source, which are not always exact repeats. Identical values can stand only once.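 Briefly, cells in 96-well plates were exposed to five compound concentrations for 48 h, and endpoints were estimated by linear interpolation. Here, GI50 denotes the concentration required for 50% inhibition of growth. TGI denotes the concentration required for complete inhibition of growth.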

For `CC[O-].CC[O-].O=C1C=C([O-])C(=O)c2ccccc21.O=C1C=C([O-])C(=O)c2ccccc21.[Ti+4]`, the GI50 is above 100 µM in the assay on SN12C renal; 43.2 µM in the assay with HCT-116 colon; 60.6 µM in the assay on HCT-15 colon; above 100 µM in the assay on 786-0 renal; 46.1 µM in the assay with HCC-2998 colon; above 100 µM with SK-MEL-28 melanoma. Also, the GI50 was above 100 µM with U251 CNS, 7.76 µM with NCI-H460 lung, above 100 µM with SF-268 CNS and 24 µM in the assay with COLO 205 colon. Moreover, the TGI in the assay with SN12C renal, in the assay with HCT-116 colon, in the assay on HCT-15 colon, in the assay with 786-0 renal, with HCC-2998 colon and in the assay with SK-MEL-28 melanoma was above 100 µM each time. The TGI in the assay with U251 CNS is above 100 µM; in the assay on NCI-H460 lung, above 92.9 µM; with SF-268 CNS, above 100 µM; in the assay on COLO 205 colon it was above 59.8 µM.
`CCN(N=O)C1C2(CCCC2)NC(=O)C12CCCC2` (stereo unspecified): the TGI in the assay with SN12C renal, with HCT-116 colon, in the assay on HCT-15 colon, in the assay on 786-0 renal, with HCC-2998 colon and in the assay on SK-MEL-28 melanoma was above 100 µM throughout. Moreover, the TGI in the assay on U251 CNS, in the assay on NCI-H460 lung and in the assay with SF-268 CNS was above 100 µM throughout.
With `O=C(O)c1ccc(CSc2nc3ccccc3[nH]2)cc1`, the GI50 in the assay on SN12C renal, in the assay with HCT-116 colon, with HCT-15 colon, in the assay with 786-0 renal, in the assay with HCC-2998 colon and in the assay on SK-MEL-28 melanoma was above 100 µM in each case. For the same compound, the GI50 in the assay on U251 CNS, in the assay on NCI-H460 lung, in the assay with SF-268 CNS and in the assay on COLO 205 colon was above 100 µM throughout. Moreover, the TGI in the assay with SN12C renal, in the assay with HCT-116 colon, in the assay on HCT-15 colon, in the assay on 786-0 renal, in the assay with HCC-2998 colon and in the assay on SK-MEL-28 melanoma was above 100 µM in each case. Moreover, the TGI in the assay on U251 CNS, in the assay with NCI-H460 lung, with SF-268 CNS and in the assay on COLO 205 colon was above 100 µM in each case.
Turning to `COc1ccc(OC(=O)N2C/C(=C\c3ccccc3)C(=O)/C(=C/c3ccccc3)C2)cc1`, the TGI in the assay with SN12C renal turned out to be 5.83 µM; with HCT-116 colon, 1.19 µM; with HCT-15 colon it was 9.23 µM; with 786-0 renal, 7.96 µM; with HCC-2998 colon it was 8.76 µM; with SK-MEL-28 melanoma, 4.97 µM. Also, the TGI is 8.87 µM in the assay with U251 CNS, 13.7 µM with NCI-H460 lung, 15.2 µM with SF-268 CNS and 15.7 µM with COLO 205 colon.
As for `CCCCCc1cc(/C=C2/N=C(c3ccc[nH]3)C=C2OC)[nH]c1C`, the TGI is 0.844 µM in the assay on SN12C renal; below 0.0387 µM in the assay with HCT-116 colon; 1.05 µM with HCT-15 colon; below 0.0459 µM with 786-0 renal; 1.02 µM in the assay on HCC-2998 colon; 0.805 µM in the assay on SK-MEL-28 melanoma. In addition, the TGI in the assay with U251 CNS was determined as 0.153 µM; in the assay on NCI-H460 lung, 1.26 µM; in the assay with SF-268 CNS it was 1.13 µM; in the assay with COLO 205 colon, 0.0483 µM.
Take `COc1cc(/C=C2\CCC/C(=C\c3cc(CN4CCCC4)c(O)c(OC)c3)C2=O)cc(CN2CCCC2)c1O`: the GI50 in the assay on SN12C renal was 4.89 µM; with HCT-116 colon, 1.66 µM; in the assay with HCT-15 colon it was 2.34 µM; in the assay with 786-0 renal, 3.15 µM; with HCC-2998 colon, 2.55 µM; in the assay on SK-MEL-28 melanoma, 10.1 µM. For the same compound, the GI50 was 3.03 µM in the assay on U251 CNS, 2.97 µM with NCI-H460 lung, 4.53 µM in the assay on SF-268 CNS and 1.19 µM in the assay on COLO 205 colon. Further, the TGI was found to be 21.2 µM in the assay on SN12C renal; 3.36 µM with HCT-116 colon; 7.87 µM in the assay with HCT-15 colon; 14.7 µM with 786-0 renal; 6.38 µM in the assay on HCC-2998 colon; 22.7 µM in the assay with SK-MEL-28 melanoma. Also, the TGI was determined as 11.2 µM in the assay on U251 CNS, 10.6 µM in the assay with NCI-H460 lung, 16.3 µM in the assay with SF-268 CNS and 2.76 µM with COLO 205 colon.
In the case of `CC(C)c1cnc(-c2cc(Cl)ccc2F)cc1Nc1ccncc1C(=O)NC(CO)CO`, the GI50 with SN12C renal was 8.13 µM; in the assay on HCT-116 colon it was 12.5 µM; with HCT-15 colon, 12.9 µM; with 786-0 renal it was 14.1 µM; in the assay on HCC-2998 colon, 17.6 µM; in the assay with SK-MEL-28 melanoma, 16.9 µM. For the same compound, the GI50 was 14.9 µM in the assay on U251 CNS, 12.5 µM with NCI-H460 lung, 12.3 µM in the assay on SF-268 CNS and 14.9 µM with COLO 205 colon. For the same compound, the TGI with SN12C renal is 23.7 µM; in the assay with HCT-116 colon, 28.5 µM; in the assay with HCT-15 colon it was 26.9 µM; in the assay on 786-0 renal, 37.1 µM; with HCC-2998 colon it was 33.2 µM; with SK-MEL-28 melanoma, 32.8 µM. For the same compound, the TGI was found to be 33.9 µM in the assay with U251 CNS, 28.3 µM with NCI-H460 lung, 33 µM with SF-268 CNS and 33.9 µM in the assay on COLO 205 colon.
On to `O=C1CCc2cc(Br)ccc2O1`, for which the TGI in the assay with SN12C renal, with HCT-116 colon, with HCT-15 colon, with 786-0 renal, in the assay on HCC-2998 colon and with SK-MEL-28 melanoma was above 100 µM each time. The TGI in the assay with U251 CNS, with NCI-H460 lung, with SF-268 CNS and with COLO 205 colon was above 100 µM throughout.
`CCCCCCCCCCCCC(O)C1CCC(C(O)CCCCC(O)CCCCCC2CC(CC(C)=O)C(=O)O2)O1` (stereo unspecified): the GI50 was 2.54 µM in the assay with SN12C renal; 1.93 µM in the assay with HCT-116 colon; 2.56 µM with HCT-15 colon; 3.91 µM in the assay with 786-0 renal; 2.85 µM with SK-MEL-28 melanoma; 1.37 µM in the assay with SF-268 CNS. In addition, in the assay on COLO 205 colon, the GI50 is 1.37 µM. In addition, the TGI was 8.27 µM and 20.2 µM in the assay on SN12C renal; 14.8 µM with HCT-116 colon; 5.23 µM and 17.9 µM in the assay with HCT-15 colon; 19.7 µM in the assay with 786-0 renal; 16.3 µM in the assay with HCC-2998 colon; 14 µM in the assay with SK-MEL-28 melanoma. Further, the TGI in the assay on U251 CNS was 18.2 µM; in the assay with NCI-H460 lung, above 43.8 µM; with SF-268 CNS it was 4.45 µM and 17.1 µM; in the assay on COLO 205 colon, 2.65 µM and 11.7 µM.
